In US20130237511A1, “Copper Ion Delivery Platform for Pharmaceutical Agents” (University System of Georgia, priority 2012, published 2013):

Tests used:
SF-539 = assay: NCI 60 cell line panel, single dose; format: cell-based; conditions: CNS Cancer, SF-539, single dose
SNB-75 = assay: NCI 60 cell line panel, single dose; format: cell-based; conditions: CNS Cancer, SNB-75, single dose
SNB-19 = assay: NCI 60 cell line panel, single dose; format: cell-based; conditions: CNS Cancer, SNB-19, single dose
SF-268 = assay: NCI 60 cell line panel, single dose; format: cell-based; conditions: CNS Cancer, SF-268, single dose
786-0 = assay: NCI 60 cell line panel, single dose; format: cell-based; conditions: Renal Cancer, 786-0, single dose
Source text: (§1) This complex performed at a similar level compared to individual tests for copper(II) sulfate as well as quinine sulfate (NSC).

SK-OV-3 = assay: NCI 60 cell line panel, single dose; format: cell-based; conditions: Ovarian Cancer, SK-OV-3, single dose
Source text: as §1

HOP-62 = assay: NCI 60 cell line panel, single dose; format: cell-based; conditions: Non-Small Cell Lung Cancer, HOP-62, single dose
Source text: as §1

TK-10 = assay: NCI 60 cell line panel, single dose; format: cell-based; conditions: Renal Cancer, TK-10, single dose
Source text: as §1

LOX IMVI = assay: NCI 60 cell line panel, single dose; format: cell-based; conditions: Melanoma
Source text: as §1

MDA-MB-468 = assay: NCI 60 cell line panel, single dose; format: cell-based; conditions: Breast Cancer, MDA-MB-468, single dose
Source text: as §1

MDA-MB-231/ATCC = assay: NCI 60 cell line panel, single dose; format: cell-based; conditions: Breast Cancer
Source text: as §1

CCRF-CEM = assay: NCI 60 cell line panel, single dose; format: cell-based; conditions: Leukemia
Source text: as §1

SW-620 = assay: NCI 60 cell line panel, single dose; format: cell-based; conditions: Colon Cancer, SW-620, single dose
Source text: as §1

SN12C = assay: NCI 60 cell line panel, single dose; format: cell-based; conditions: Renal Cancer
Source text: as §1

UACC-257 = assay: NCI 60 cell line panel, single dose; format: cell-based; conditions: Melanoma, UACC-257, single dose
Source text: as §1

NCI-H23 = assay: NCI 60 cell line panel, single dose; format: cell-based; conditions: Non-Small Cell Lung Cancer
Source text: as §1

HL-60(TB) = assay: NCI 60 cell line panel, single dose; format: cell-based; conditions: Leukemia
Source text: as §1

EKVX = assay: NCI 60 cell line panel, single dose; format: cell-based; conditions: Non-Small Cell Lung Cancer
Source text: as §1

A549/ATCC = assay: NCI 60 cell line panel, single dose; format: cell-based; conditions: Non-Small Cell Lung Cancer
Source text: as §1

HCT-15 = assay: NCI 60 cell line panel, single dose; format: cell-based; conditions: Colon Cancer, HCT-15, single dose
Source text: as §1

OVCAR-8 = assay: NCI 60 cell line panel, single dose; format: cell-based; conditions: Ovarian Cancer, OVCAR-8, single dose
Source text: as §1

MDA-MB-435 = assay: NCI 60 cell line panel, single dose; format: cell-based; conditions: Melanoma, MDA-MB-435, single dose
Source text: as §1

T-47D = assay: NCI 60 cell line panel, single dose; format: cell-based; conditions: Breast Cancer
Source text: as §1

DU-145 = assay: NCI 60 cell line panel, single dose; format: cell-based; conditions: Prostate Cancer, DU-145, single dose
Source text: as §1

ACHN = assay: NCI 60 cell line panel, single dose; format: cell-based; conditions: Renal Cancer
Source text: as §1

NCI-H226 = assay: NCI 60 cell line panel, single dose; format: cell-based; conditions: Non-Small Cell Lung Cancer
Source text: as §1

NCI-H460 = assay: NCI 60 cell line panel, single dose; format: cell-based; conditions: Non-Small Cell Lung Cancer
Source text: as §1

HCT-116 = assay: NCI 60 cell line panel, single dose; format: cell-based; conditions: Colon Cancer, HCT-116, single dose
Source text: as §1

SK-MEL-2 = assay: NCI 60 cell line panel, single dose; format: cell-based; conditions: Melanoma, SK-MEL-2, single dose
Source text: as §1

RPMI-8226 = assay: NCI 60 cell line panel, single dose; format: cell-based; conditions: Leukemia, RPMI-8226, single dose
Source text: as §1

SR = assay: NCI 60 cell line panel, single dose; format: cell-based; conditions: Leukemia
Source text: as §1

UO-31 = assay: NCI 60 cell line panel, single dose; format: cell-based; conditions: Renal Cancer, UO-31, single dose
Source text: as §1

HCC-2998 = assay: NCI 60 cell line panel, single dose; format: cell-based; conditions: Colon Cancer, HCC-2998, single dose
Source text: as §1

COLO 205 = assay: NCI 60 cell line panel, single dose; format: cell-based; conditions: Colon Cancer, COLO 205, single dose
Source text: as §1

HS 578T = assay: NCI 60 cell line panel, single dose; format: cell-based; conditions: Breast Cancer
Source text: as §1

OVCAR-3 = assay: NCI 60 cell line panel, single dose; format: cell-based; conditions: Ovarian Cancer, OVCAR-3, single dose
Source text: as §1

UACC-62 = assay: NCI 60 cell line panel, single dose; format: cell-based; conditions: Melanoma, UACC-62, single dose
Source text: as §1

MCF7 = assay: NCI 60 cell line panel, single dose; format: cell-based; conditions: Breast Cancer
Source text: as §1

OVCAR-5 = assay: NCI 60 cell line panel, single dose; format: cell-based; conditions: Ovarian Cancer, OVCAR-5, single dose
Source text: as §1

NCI-H322M = assay: NCI 60 cell line panel, single dose; format: cell-based; conditions: Non-Small Cell Lung Cancer
Source text: as §1

RXF 393 = assay: NCI 60 cell line panel, single dose; format: cell-based; conditions: Renal Cancer, RXF 393, single dose
Source text: as §1

M14 = assay: NCI 60 cell line panel, single dose; format: cell-based; conditions: Melanoma
Source text: as §1

MALME-3M = assay: NCI 60 cell line panel, single dose; format: cell-based; conditions: Melanoma
Source text: as §1

KM12 = assay: NCI 60 cell line panel, single dose; format: cell-based; conditions: Colon Cancer
Source text: as §1

SK-MEL-28 = assay: NCI 60 cell line panel, single dose; format: cell-based; conditions: Melanoma, SK-MEL-28, single dose
Source text: as §1

NCI-H522 = assay: NCI 60 cell line panel, single dose; format: cell-based; conditions: Non-Small Cell Lung Cancer
Source text: as §1

MOLT-4 = assay: NCI 60 cell line panel, single dose; format: cell-based; conditions: Leukemia, MOLT-4, single dose
Source text: as §1

HT29 = assay: NCI 60 cell line panel, single dose; format: cell-based; conditions: Colon Cancer
Source text: as §1

IGROV1 = assay: NCI 60 cell line panel, single dose; format: cell-based; conditions: Ovarian Cancer
Source text: as §1

CAKI-1 = assay: NCI 60 cell line panel, single dose; format: cell-based; conditions: Renal Cancer, CAKI-1, single dose
Source text: as §1

OVCAR-4 = assay: NCI 60 cell line panel, single dose; format: cell-based; conditions: Ovarian Cancer, OVCAR-4, single dose
Source text: as §1

NCI/ADR-RES = assay: NCI 60 cell line panel, single dose; format: cell-based; conditions: Ovarian Cancer
Source text: as §1

BT-549 = assay: NCI 60 cell line panel, single dose; format: cell-based; conditions: Breast Cancer, BT-549, single dose
Source text: as §1

HOP-92 = assay: NCI 60 cell line panel, single dose; format: cell-based; conditions: Non-Small Cell Lung Cancer, HOP-92, single dose
Source text: as §1

SF-295 = assay: NCI 60 cell line panel, single dose; format: cell-based; conditions: CNS Cancer, SF-295, single dose
U251 = assay: NCI 60 cell line panel, single dose; format: cell-based; conditions: CNS Cancer
[1] = ionic strengths 0.01 to 1, 25 and 37° C.; cited from earlier work

Compound: copper(II)-(quinine)2^+ [CuQ2]
- Growth Percent (SF-539): 102.4%
- Growth Percent (SNB-75): 126.4%
- Growth Percent (SNB-19): 108.7%
- Growth Percent (SF-268): 125.4%
- Growth Percent (786-0): 120.5%
- Growth Percent (SK-OV-3): 95.07%
- Growth Percent (HOP-62): 132.7%
- Growth Percent (TK-10): 115%
- Growth Percent (LOX IMVI): 80.61%
- Growth Percent (MDA-MB-468): 117.8%
- Growth Percent (MDA-MB-231/ATCC): 82.36%
- Growth Percent (CCRF-CEM): 100.1%
- Growth Percent (SW-620): 111%
- Growth Percent (SN12C): 109.4%
- Growth Percent (UACC-257): 93.34%
- Growth Percent (NCI-H23): 104.3%
- Growth Percent (HL-60(TB)): 106.2%
- Growth Percent (EKVX): 119.3%
- Growth Percent (A549/ATCC): 88.43%
- Growth Percent (HCT-15): 98.35%
- Growth Percent (OVCAR-8): 103.8%
- Growth Percent (MDA-MB-435): 91.47%
- Growth Percent (T-47D): 100.1%
- Growth Percent (DU-145): 113.3%
- Growth Percent (ACHN): 100.6%
- Growth Percent (NCI-H226): 103.6%
- Growth Percent (NCI-H460): 105.8%
- Growth Percent (HCT-116): 96.95%
- Growth Percent (SK-MEL-2): 95.24%
- Growth Percent (RPMI-8226): 105.8%
- Growth Percent (SR): 80.32%
- Growth Percent (UO-31): 92.23%
- Growth Percent (HCC-2998): 108.9%
- Growth Percent (COLO 205): 91.74%
- Growth Percent (HS 578T): 117.5%
- Growth Percent (OVCAR-3): 120%
- Growth Percent (UACC-62): 84.78%
- Growth Percent (MCF7): 84.97%
- Growth Percent (OVCAR-5): 116.2%
- Growth Percent (NCI-H322M): 119.9%
- Growth Percent (RXF 393): 139.9%
- Growth Percent (M14): 101.1%
- Growth Percent (MALME-3M): 105.7%
- Growth Percent (KM12): 91.04%
- Growth Percent (SK-MEL-28): 109.2%
- Growth Percent (NCI-H522): 94.89%
- Growth Percent (MOLT-4): 96.49%
- Growth Percent (HT29): 84.68%
- Growth Percent (IGROV1): 124.1%
- Growth Percent (CAKI-1): 109.9%
- Growth Percent (OVCAR-4): 110.4%
- Growth Percent (NCI/ADR-RES): 105%
- Growth Percent (BT-549): 107.4%
- Growth Percent (HOP-92): 88.14%
- Growth Percent (SF-295): 85.7%
- Growth Percent (U251): 83.16%

Compound: C=C[C@H]1C[N@@]2CC[C@H]1C[C@H]2[C@H](O)c1ccnc2ccc(OC)cc12 [Quinine]
- pKa1 [1]: approximately 4.2
- pKa2 [1]: 8.5
